Earlier results, collected in patent US20040102473A1, “Method of preventing or treating atherosclerosis or restenosis” (priority 2002, published 2004).

Test system: CMV
Conditions: DHPG prophylaxis, Lemstrom et al., Circulation 1994

## Nc1nc(O)c2ncn(COC(CO)CO)c2n1 [Ganciclovir]
  prevention of atherosclerosis resulting from CMV infection of rats: prevent atherosclerosis
